How the values were obtained:
tremor in mice = conditions: mouse, in vivo
in vitro = conditions: human, serum
Cav2.2 channel = Cav2.2 channel (Homo sapiens, UniProt Q00975); assay: cell-based; assay type: cell-based
[1] = system: coordinated locomotion in mice; conditions: mouse, in vivo
[2] = assay type: physicochemical; conditions: pH 7.4

Cav2.2 channel, sequence (Q00975 whole entry, looked up): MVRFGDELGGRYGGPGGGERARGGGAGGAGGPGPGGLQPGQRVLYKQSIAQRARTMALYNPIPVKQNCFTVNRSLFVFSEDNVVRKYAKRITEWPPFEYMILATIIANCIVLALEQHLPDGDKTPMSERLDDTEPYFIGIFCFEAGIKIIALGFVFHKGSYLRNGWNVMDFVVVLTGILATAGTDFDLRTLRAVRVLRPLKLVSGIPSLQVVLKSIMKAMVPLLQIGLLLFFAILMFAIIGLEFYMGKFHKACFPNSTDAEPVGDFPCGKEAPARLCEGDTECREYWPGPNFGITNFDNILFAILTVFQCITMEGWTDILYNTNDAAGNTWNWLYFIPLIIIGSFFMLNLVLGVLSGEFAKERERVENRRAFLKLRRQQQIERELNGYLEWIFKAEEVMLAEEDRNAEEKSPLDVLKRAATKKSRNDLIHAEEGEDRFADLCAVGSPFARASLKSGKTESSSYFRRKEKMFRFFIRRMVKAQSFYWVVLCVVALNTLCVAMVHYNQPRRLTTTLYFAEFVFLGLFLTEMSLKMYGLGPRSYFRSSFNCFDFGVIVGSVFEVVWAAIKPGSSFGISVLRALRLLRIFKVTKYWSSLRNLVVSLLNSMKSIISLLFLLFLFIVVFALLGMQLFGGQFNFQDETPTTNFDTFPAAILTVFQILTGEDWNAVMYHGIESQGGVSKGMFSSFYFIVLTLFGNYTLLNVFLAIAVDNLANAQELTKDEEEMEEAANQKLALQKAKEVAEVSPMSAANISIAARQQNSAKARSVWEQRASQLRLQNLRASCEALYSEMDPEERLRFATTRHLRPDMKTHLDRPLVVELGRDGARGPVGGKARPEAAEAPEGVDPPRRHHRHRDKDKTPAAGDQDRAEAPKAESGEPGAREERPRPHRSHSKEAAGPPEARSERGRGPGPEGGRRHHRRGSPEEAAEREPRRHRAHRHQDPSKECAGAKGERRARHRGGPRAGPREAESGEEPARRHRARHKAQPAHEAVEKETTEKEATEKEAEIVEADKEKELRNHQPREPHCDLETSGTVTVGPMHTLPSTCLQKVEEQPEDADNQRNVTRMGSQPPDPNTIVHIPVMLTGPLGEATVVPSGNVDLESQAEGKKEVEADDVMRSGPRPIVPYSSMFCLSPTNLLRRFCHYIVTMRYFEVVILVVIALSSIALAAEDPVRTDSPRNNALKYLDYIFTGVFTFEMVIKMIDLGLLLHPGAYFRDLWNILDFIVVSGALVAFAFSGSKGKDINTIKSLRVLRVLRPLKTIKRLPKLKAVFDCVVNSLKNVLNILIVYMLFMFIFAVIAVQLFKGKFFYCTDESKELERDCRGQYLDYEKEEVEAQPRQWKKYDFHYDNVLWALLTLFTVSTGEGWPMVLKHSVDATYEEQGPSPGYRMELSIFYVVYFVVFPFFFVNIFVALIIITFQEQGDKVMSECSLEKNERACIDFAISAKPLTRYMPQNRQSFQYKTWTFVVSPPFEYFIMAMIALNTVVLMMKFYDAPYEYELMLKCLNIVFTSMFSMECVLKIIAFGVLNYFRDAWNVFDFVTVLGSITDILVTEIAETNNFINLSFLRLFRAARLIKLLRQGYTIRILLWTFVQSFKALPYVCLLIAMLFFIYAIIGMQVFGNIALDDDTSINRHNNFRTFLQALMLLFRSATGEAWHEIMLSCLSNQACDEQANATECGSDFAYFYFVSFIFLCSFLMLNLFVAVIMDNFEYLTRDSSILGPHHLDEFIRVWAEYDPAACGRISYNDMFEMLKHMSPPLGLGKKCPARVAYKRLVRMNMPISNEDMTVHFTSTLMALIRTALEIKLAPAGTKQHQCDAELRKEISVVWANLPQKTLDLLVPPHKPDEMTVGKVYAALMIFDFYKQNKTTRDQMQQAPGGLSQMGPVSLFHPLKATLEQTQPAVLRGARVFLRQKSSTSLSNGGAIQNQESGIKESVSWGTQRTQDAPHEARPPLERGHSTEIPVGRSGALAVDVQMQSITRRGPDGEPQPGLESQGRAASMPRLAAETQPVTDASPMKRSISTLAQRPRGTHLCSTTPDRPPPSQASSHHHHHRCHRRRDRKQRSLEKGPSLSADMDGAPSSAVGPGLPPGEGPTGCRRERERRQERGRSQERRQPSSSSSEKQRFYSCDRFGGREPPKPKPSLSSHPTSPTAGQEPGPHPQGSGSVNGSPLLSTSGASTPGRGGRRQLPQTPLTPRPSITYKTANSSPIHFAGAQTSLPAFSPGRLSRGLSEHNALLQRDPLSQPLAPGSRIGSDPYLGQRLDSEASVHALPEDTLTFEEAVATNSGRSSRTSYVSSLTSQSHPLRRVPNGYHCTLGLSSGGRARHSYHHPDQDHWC

SMILES	tremor intensity (4-point scale 0-3) (tremor in mice)	remaining at 24 h (in vitro) [%]	IC50 (Cav2.2 channel) [µM]	reduction of ICa amplitude (Cav2.2 channel) [%]	effect on coordinated locomotion [1]	particle size (dynamic light scattering) [2] [nm]
CCCCCCCCCCCCCC(=O)N[C@H]1CSSC[C@@H]2NC(=O)[C@@H]3CSSC[C@@H](C(N)=O)NC(=O)[C@H](CCCCN)NC(=O)CNC(=O)[C@H](CO)NC(=O)[C@H](CCCNC(=N)N)NC(=O)[C@H](CSSC[C@H](NC(=O)[C@H](CCCCN)NC(=O)[C@H](C)NC(=O)CNC(=O)[C@H](CCCCN)NC(=O)CNC(=O)[C@H](CCCCN)NC1=O)C(=O)N[C@@H](CO)C(=O)N[C@@H](CCCNC(=N)N)C(=O)N[C@@H](CC(C)C)C(=O)N[C@@H](CCSC)C(=O)N[C@@H](Cc1ccc(O)cc1)C(=O)N[C@@H](CC(=O)O)C(=O)N3)NC(=O)[C@H](CO)NC(=O)CNC(=O)[C@H]([C@@H](C)O)NC2=O [Myr-MVIIA]	no tremor symptoms	67.8	0.0921	66.83 ± 0.16	did not affect coordinated locomotion	–
CSCC[C@@H]1NC(=O)[C@H](CC(C)C)NC(=O)[C@H](CCCNC(=N)N)NC(=O)[C@H](CO)NC(=O)[C@@H]2CSSC[C@@H]3NC(=O)[C@H](CO)NC(=O)CNC(=O)[C@H]([C@@H](C)O)NC(=O)[C@H](CSSC[C@H](N)C(=O)N[C@@H](CCCCN)C(=O)NCC(=O)N[C@@H](CCCCN)C(=O)NCC(=O)N[C@@H](C)C(=O)N[C@@H](CCCCN)C(=O)N2)NC(=O)[C@H](CSSC[C@@H](C(N)=O)NC(=O)[C@H](CCCCN)NC(=O)CNC(=O)[C@H](CO)NC(=O)[C@H](CCCNC(=N)N)NC3=O)NC(=O)[C@H](CC(=O)O)NC(=O)[C@H](Cc2ccc(O)cc2)NC1=O [MVIIA, ω-conotoxin MVIIA, reference compound]	highest tremor intensity at 30–60 min, after which it gradually decreased	–	–	100.00 ± 0.00	significant at 30–60 min and gradually decreased from 2 to 4 h	48.74 ± 16.07

Reference: publication PMC10144222 (Marine Drugs, 2023)
